Measurements reported in patent US12319655B2, “RAF kinase inhibitors and methods of use thereof” (Deciphera Pharmaceuticals, LLC, priority 2021, dated 2025).
Where two headings read alike, the source gives them in different places.

Tests used:
WM3928 cells = experiment: WM3928 Cell Proliferation Assay (1); type: cell-based
How it was run: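 IC50 was derived from resazurin fluorescence (ex 540, em 600 nm) after a 6–7 h dye incubation. Before that, cells had 67–72 h of compound exposure at 37 °C, 5% CO2.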

A375 cells = experiment: A375 Cell Proliferation Assay (1); type: cell-based; settings: Homo sapiens, A-375
How it was run: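 Resazurin fluorescence (excitation 540 nm, emission 600 nm, after a further 5-6 h) gave IC50s from triplicate compound dilution series.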

H2405 cells = experiment: H2405 Cell Proliferation Assay (1); type: cell-based; settings: Homo sapiens, NCI-H2405
How it was run: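 Viability was read by resazurin reduction (ex 540 nm, em 600 nm; 5-6 h with 40 μL of 440 μM stock) after 67-72 h compound exposure at 37 °C.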

[1] = biological target: B-Raf (V600E) (SEQ. ID NO: 4) kinase (Homo sapiens (Human), UniProt P15056, V600E); experiment: Biochemical Assay for B-Raf (V600E) (1); settings: Table J, BRAF V600E
B-Raf (V600E) (SEQ. ID NO: 4) kinase, sequence (P15056 416-766 V600E): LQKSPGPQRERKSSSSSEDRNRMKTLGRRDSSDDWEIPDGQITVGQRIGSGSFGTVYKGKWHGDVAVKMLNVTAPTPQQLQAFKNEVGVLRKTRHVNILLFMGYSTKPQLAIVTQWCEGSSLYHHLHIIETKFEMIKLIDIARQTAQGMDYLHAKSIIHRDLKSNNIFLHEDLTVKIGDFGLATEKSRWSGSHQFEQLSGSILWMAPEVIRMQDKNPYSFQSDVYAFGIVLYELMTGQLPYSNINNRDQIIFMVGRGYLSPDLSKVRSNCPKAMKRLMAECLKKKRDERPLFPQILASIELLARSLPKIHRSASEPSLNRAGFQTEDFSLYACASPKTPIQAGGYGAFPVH
How it was run: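 Serially diluted compounds tested against 0.03 nM enzyme with 30.1 nM MEK substrate and 1 mM ATP (Tris pH 7.5, 15 mM MgCl2), ATP use coupled to NADH loss via PK/LDH. A340 monitored continuously 6 h, 30 °C; IC50 fitted (four-parameter) from the 3–4 h rate versus no-compound and known-inhibitor controls.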

[2] = assay version (1), read-out: BRAF VE (1) IC50
[3] = biochemical assay (1), read-out: BRAF VE (1)

IC50 (A375 cells) [nM] | IC50 (H2405 cells) [nM] | IC50 [1, 2] [nM] | IC50 [1, 3] [nM] | SMILES | IC50 (WM3928 cells) [nM]
1000 to 10000 | 500 to 1000 | ≤ 100 |  | CNC(=O)c1cc(-c2cc(-c3cc(NC(=O)c4ccnc(C(F)(F)F)c4)cnc3C)ccn2)ccn1 [Example 42] | 1000 to 10000
≤ 100 | 100 to 500 |  | ≤ 100 | CNC(=O)c1cc(-c2ccnc(-c3cc(NC(=O)c4ccnc(C(C)(C)F)c4)ccc3C)c2)ccn1 [Example 378] | 100 to 500
≤ 100 | ≤ 100 |  | ≤ 100 | Cc1ccc(NC(=O)c2ccnc(C3(C#N)CC3)c2)cc1-c1cncc(-c2cc(NC(=O)C3CC3)ncn2)c1 [Example 395] | ≤ 100
≤ 100 | ≤ 100 |  | ≤ 100 | Cc1ccc(NC(=O)c2ccnc(C(F)(F)F)c2)cc1-c1cncc(-c2cc(NC(=O)C3CC3)ncn2)c1 [Example 397] | ≤ 100
100 to 500 | 100 to 500 |  | ≤ 100 | COC(=O)Nc1cc(-c2cnnc(-c3cc(NC(=O)c4ccnc(C(C)(C)F)c4)ccc3C)c2)ccn1 [Example 375] | ≤ 100
≤ 100 | 500 to 1000 |  | ≤ 100 | COC(=O)Nc1cc(-c2nccc(-c3cc(NC(=O)c4ccnc(C(C)(C)F)c4)ccc3C)n2)ccn1 [Example 391] | ≤ 100
100 to 500 | ≤ 100 | ≤ 100 |  | Cc1ccc(NC(=O)c2ccnc(C(F)(F)F)c2)cc1-c1ccnc(-c2ccnc(NC(=O)C3CC3)c2)c1 [Example 54] | ≤ 100
100 to 500 | 100 to 500 | ≤ 100 |  | CNC(=O)c1cc(-c2cc(-c3cc(C(=O)Nc4ccnc(C(C)(C)C#N)c4)ccc3C)ccn2)ccn1 [Example 74] | 100 to 500
500 to 1000 | 500 to 1000 | ≤ 100 |  | Cc1ccc(NC(=O)c2ccnc(C(C)(C)C#N)c2)cc1-c1ccnc(-c2ccnc(N)c2)n1 [Example 82] | 1000 to 10000
≤ 100 | ≤ 100 |  | ≤ 100 | Cc1cc(F)c(NC(=O)c2ccnc(C(C)(C)F)c2)cc1-c1cncc(-c2ccnc(NC(=O)C3CC3)c2)c1 [Example 399] | ≤ 100
1000 to 10000 | 1000 to 10000 |  | 100 to 500 | Cc1ccc(NC(=O)[C@H]2CCO[C@@H](C(C)C)C2)cc1-c1cc(-c2ccnc(NC(=O)C3CC3)c2)cnn1 [Example 388] | 500 to 1000
100 to 500 | 500 to 1000 | ≤ 100 |  | Cc1ccc(NC(=O)c2ccnc(C(C)(C)C#N)c2)cc1-c1ccnc(-c2ccnc(N)c2)c1 [Example 56] | 500 to 1000
≤ 100 | ≤ 100 |  | ≤ 100 | Cc1ccc(NC(=O)c2ccnc(C(C)(C)F)c2)cc1-c1cncc(-c2cc(NC(=O)C3CC3)ncn2)c1 [Example 394] | ≤ 100
≤ 100 | ≤ 100 |  | ≤ 100 | Cc1cc(F)c(NC(=O)c2ccnc(C3CC3)c2)cc1-c1cncc(-c2cc(NC(=O)C3CC3)ncn2)c1 [Example 398] | ≤ 100
100 to 500 | 500 to 1000 |  | ≤ 100 | COC(=O)Nc1cc(-c2cc(-c3cc(NC(=O)c4ccnc(C(C)(C)F)c4)c(F)cc3C)cc(C)n2)ccn1 [Example 386] | 100 to 500
≤ 100 | 100 to 500 |  | ≤ 100 | CNC(=O)c1cc(-c2ccnc(-c3cc(NC(=O)c4ccnc(C(C)(C)C#N)c4)ccc3C)c2)ccn1 [Example 376] | 100 to 500

IC50 (A375 cells) [nM] | IC50 (H2405 cells) [nM] | IC50 [1, 2] [nM] | IC50 [1, 3] [nM] | SMILES | IC50 (WM3928 cells) [nM]
≤ 100 | ≤ 100 | ≤ 100 |  | CNC(=O)c1cc(-c2cc(-c3cc(NC(=O)c4ccnc(C(C)(C)C#N)c4)ccc3C)ccn2)ccn1 [Example 50] | ≤ 100
100 to 500 | 100 to 500 |  | ≤ 100 | COC(=O)Nc1cc(-c2ccnc(-c3cc(NC(=O)c4ccnc(C(C)(C)F)c4)ccc3C)n2)ccn1 [Example 403] | ≤ 100
≤ 100 | ≤ 100 | ≤ 100 |  | Cc1ccc(NC(=O)c2ccnc(C(F)(F)F)c2)cc1-c1cccc(-c2cc(NC(=O)C3CC3)ncn2)c1 [Example 80] | 100 to 500
≤ 100 | 100 to 500 | ≤ 100 |  | CCOc1ncc(-c2cc(NC(=O)c3ccnc(C(F)(F)F)c3)ccc2C)cc1-c1ccnc(NC(C)=O)c1 [Example 68] | ≤ 100
100 to 500 | 500 to 1000 |  | ≤ 100 | COC(=O)Nc1cc(-c2cccc(-c3cc(NC(=O)c4ccnc(C(C)(C)F)c4)cnc3C)c2)ccn1 [Example 402] | 100 to 500
100 to 500 | 100 to 500 |  | ≤ 100 | Cc1ccc(NC(=O)c2ccnc(C(C)(C)F)c2)cc1-c1cncc(-c2ccnc(C(N)=O)c2)c1 [Example 380] | ≤ 100
100 to 500 | 100 to 500 | ≤ 100 |  | CCOc1ncc(-c2cc(NC(=O)c3ccnc(C(F)(F)F)c3)ccc2C)cc1-c1ccnc(C(=O)NC)c1 [Example 69] | ≤ 100
≤ 100 | 100 to 500 |  | ≤ 100 | COC(=O)Nc1cc(-c2cc(-c3cc(NC(=O)c4ccnc(C(C)(C)F)c4)ccc3C)cc(OCCO)n2)ccn1 [Example 401] | ≤ 100
≤ 100 | 100 to 500 |  | ≤ 100 | COC(=O)Nc1cc(-c2cncc(-c3cc(NC(=O)c4ccnc(C(C)(C)F)c4)c(F)cc3C)c2)ccn1 [Example 384] | ≤ 100
100 to 500 | 100 to 500 |  | ≤ 100 | Cc1ccc(NC(=O)c2cc(C3CC3)n(C)n2)cc1-c1cc(-c2ccnc(NC(=O)C3CC3)c2)cnn1 [Example 377] | ≤ 100
500 to 1000 | 100 to 500 | ≤ 100 |  | CNC(=O)c1cc(-c2cc(-c3cc(NC(=O)c4ccnc(C(F)F)c4)ccc3C)ccn2)ccn1 [Example 48] | 500 to 1000
1000 to 10000 | 1000 to 10000 |  | 1000 to 10000 | CNC(=O)c1cc(-c2ccnc(-c3cc(NC(=O)CCC4(F)CC4)ccc3C)c2)ccn1 [Example 392] | 1000 to 10000
100 to 500 | 100 to 500 |  | ≤ 100 | CNC(=O)c1cc(-c2cncc(-c3cc(NC(=O)c4ccnc(C5(C#N)CC5)c4)ccc3C)c2)ncn1 [Example 393] | ≤ 100
1000 to 10000 | 1000 to 10000 |  | 100 to 500 | Cc1ccc(NC(=O)[C@H]2CCO[C@H](C(C)C)C2)cc1-c1cc(-c2ccnc(NC(=O)C3CC3)c2)cnn1 [Example 389] | 500 to 1000
1000 to 10000 | 100 to 500 | ≤ 100 |  | CNC(=O)c1cc(-c2cc(-c3cc(NC(=O)c4ccnc(C(F)(F)F)c4)ccc3C)ncn2)ccn1 [Example 85] | 1000 to 10000
100 to 500 | 100 to 500 | ≤ 100 |  | CCOc1ncc(-c2cc(NC(=O)c3ccnc(C(F)(F)F)c3)ccc2C)cc1-c1ccnc(NC(=O)C2CC2)c1 [Example 71] | ≤ 100
